Data: US8232299B2, “Phthalimide derivatives that influence cellular vesicular systems, pharmaceutical compositions, and use thereof” (Avidin Kft., priority 2007, dated 2012)

Key:
[1] = test system: human leukemia cells (K562); experiment: leukemia survival model, K562 cells i.v.; assay type: in vivo, CB17/scid mice; conditions: 100 mg/kg p.o., once a day five days per week for 3 weeks from day 4; FIG. 10
Protocol: 2×10^6 human leukemia cells (K562) from in vitro cultures were injected intravenously (i.v.) into partially narcotized (diethylether narcosis) adult male CB17/scid mice, born with immunodeficiency. After tumor cell inoculation animals were randomly assigned into two groups and their ears were marked. From the 4th day after the tumor cell inoculation mice were treated once a day five days per week for 3 weeks with compound 9a (100 mg/kg), per os (p.o.) by gavage. Control animals were treated with appropriate dilution of the carrier (DMSO) similarly to the treated group with similar frequency. Body weight changes were monitored once a week for each animal according to the ear marks. Evaluation of the effect of the compound was based on the survival of the animals. Results are shown on FIG. 10.

[2] = test system: RVH human melanoma cell line; experiment: cytotoxic effect on melanoma cell line, MTS assay, 48 hours; assay type: cell-based; conditions: 48 hours treatment, FIG. 4; for effect on RVH melanoma cells: even at 100 μM concentration
Protocol: RVH human melanoma cell line was cultured in Minimum Essential Medium Eagle (Sigma, St. Louis, Mo., USA), Na-piruvate, Glutamine, Non-essential amino acids, penicillin (50 IU/ml)-streptomycin ([…]), 10% fetal bovine serum at 37° C., in 5% CO2. Cells were trypsinized with trypsin/EDTA (Sigma-Aldrich, St. Louis, Mo.) on every second day and were passed into 60 or 100 mm plates. When the culture reached the required cell number (approx. 10^6) for the planned experiment 50.00 cell/well was plated into 24 well plates (Costar® 24 Well TC-Treated Microplates) and left overnight to adhere to the bottom of the well. Addition of the substance was performed the following way: next day the culture media was drawn from the adhered cells and media comprising compounds of the present invention in appropriate concentration and well mixed therein was pipetted (2 ml/well) onto the cells. The substance to be examined was diluted in 100% DMSO, this way an amount of DMSO corresponding to the highest concentration of the substance in a given assay were measured in the media of the control wells. After 48 hours of treatment live cells were detected by CellTiter® 96 Aqueous Non-radioactive Cell Proliferation Assay (Promega, Madison, Wis., USA) to determine the number of live cells in the treated and in the control samples.
MTS is converted to formazane in the living cells, which product is dissolved in the media, and its quantity/absorbance can be measured at 490 nm. […] Then, for the determination of the ratio of live cells 20 μl MTS and 1 μl PMS are added to 100 μl media. The enzyme reaction occurs at incubation at 37° C., 5% CO2 for 1 to 4 hours. Formazane produced by the cells is read on ELISA plate reader, from which the number of living cells can be obtained indirectly. Since the inventors performed the experiments in 24 well plates with 50.000 cell/well, the protocol had to be modified. After treatment of the cells for an appropriate time (type of compound, different concentrations), the incubation media (2 ml) containing the examined substance was removed, then 400 μl media containing reagents in the same concentration as given above (333.3 μl media, 66.6 μl MTS, and 3.3 μl PMS per well) was pipetted to the cells. To be able to use ELISA plate reader (Multiskan R C, Thermo Labsystems, Franklin, Mass., USA) 400 μl sample from each single well of the 24 well plate was pipetted into four wells of a 96 well plate (Micromethod plates 96 wells flat form) in 100 μl aliquots. That also helped to eliminate possible errors due to inconsistent pipetting. On each 24 well plate 4 wells were control samples. From these 3 times 100 μl was pipetted onto the 96 well plates, so, altogether 12 controls were provided on each 96 well plate. The remaining 4 wells were for background measurements with 100 μl media containing MTS and PMS as described above.

[3] = test system: MCF7 (Human breast adenocarcinoma); experiment: cytotoxic effect on breast carcinoma cell line, MTS test, 24 hours; assay type: cell-based; conditions: 24 hours incubation
Protocol: (§1) In these experiments HepG2 (human hepatocellular carcinoma) and MCF7 (Human breast adenocarcinoma) cells were used. They were cultured in the following media: For HepG2 Dulbecco's Modified Eagle Medium (D-MEM) (high glucose) (Gibco BRL, Carlsbad, Calif., USA), penicillin (50 IU/ml)-streptomycin ([…]), 10% fetal bovine serum; for MCF7 (Human breast adenocarcinoma) 1:1 mixture of Dulbecco's Modified Eagle Medium (D-MEM) (high glucose) (Gibco BRL, Carlsbad, Calif., USA) and Nutrient Mixture F-12 Ham (Sigma, St. Louis, Mo., USA), penicillin (50 IU/ml)-streptomycin ([…]), 10% fetal bovine serum. Experiments were performed as described in Example 9. with the difference that the incubation time was 24 hours in this case. After the incubation period MTS test (3-(4,5-dimethylthiazol-2-yl)-5-(3-carboxymethoxyphenyl)-2-(4-sulfophenyl)-2H-tetrazolium) (Promega, Madison, Wis., USA) was performed as described above.

[4] = test system: HepG2 (human hepatocellular carcinoma); experiment: cytotoxic effect on hepatocellular carcinoma cell line, MTS test, 24 hours; assay type: cell-based; conditions: 24 hours incubation
Protocol: as §1

[5] = test system: RAW.264.7 matured mice macrophages; experiment: MTS test of vitality / metabolic activity of the macrophages; assay type: cell-based
Protocol: In our experiments we investigated the early TNFα secretion of RAW.264.7 matured mice macrophages. This cell line stores large amount of preformed TNFα. […] Culture supernatant was collected and TNFα content was determined by R&D Duoset ELISA kit (detection limit<62.5 pg/ml). […] So the reduced TNFα level was due to inhibition of the release of preformed TNFα and not due to dying of the cells.
Effects of compound 3a and compound 3b on TNFα secretion and on NF-kappaB activation could have been based on cytotoxicity as well. To exclude that, we determined the metabolic activity of the cells, which is proportional to the cell number, by MTS test 8 hours after the treatment.

[6] = test system: Mycobacterium avis; experiment: inhibition of Mycobacterium avis in THP-1 macrophage culture; assay type: cell-based; conditions: 36 mg/l, THP-1 human macrophage cells; FIG. 11
Protocol: In this experiment the effects of compound 3a were analyzed: the inhibition of Mycobacterium avis in macrophage culture was investigated. Human macrophage cells (THP-1) were infected by Mycobacterium avis under in vitro conditions, subsequently treated (compound 3a: 36 mg/l) and untreated cells were harvested after different periods of time and the number of the living Mycobacterium avis bacteria were determined.

[7] = test system: TNFα; experiment: late phase (transcriptionally induced) TNFα secretion of macrophages, ELISA; assay type: cell-based, mice; conditions: preformed TNFα washed away after 4 hours, TNFα of next 4 hours; FIG. 3
Protocol: For the detection of late phase TNFα secretion the preformed TNFα, released after LPS induction of the macrophages, was washed away after 4 hours, and the amount of TNFα produced during the next 4 hours was determined by ELISA test. […] Results are depicted in FIG. 3.

[8] = test system: Rab GTPase proteins; experiment: affinity chromatography of MCF-7 protein fraction with LC-MS/MS; assay type: binding, human; conditions: compound linked to Sepharose beads, 2 M NaCl eluate
Protocol: By using affinity chromatography we investigated which are the proteins that bind compound 5b of the invention. Compound 5b was linked to cyanobromide activated Sepharose (Amersham-Pharmacia, Sepharose 4B) beads in 6:4 DMF:water mixture for 16 hours at room temperature. 1 ml of the beads was washed with 50 ml 6:4 DMF:water mixture, and then with 50 ml 70% ethanol, then with PBS (0.01 M phosphate buffer, 0.0027 M KCl, 0.137 M NaCl, pH: 7.4). After washing the column 5 ml protein fraction of human MCF-7 breast carcinoma cells (10 million cells homogenized with Complete, Protease Inhibitor Cocktail Tablets, Roche Diagnostics GmbH) were applied onto the column. The column was washed with 20 ml 0.2 M NaCl—PBS solution, then with 15 ml 0.5 M NaCl—PBS solution and with 15 ml 0.8 M NaCl—PBS solution, then it was eluted by 2 ml 2 M NaCl—PBS. The eluate was analyzed by mass spectrometry (LC-MS/MS) to determine the proteins binding to compound 5b.
Mass spectrometry analysis was performed according to the protocol published at http://donatello.ucsf.edu/ingel.html at the time of drafting the patent application.
For the LC-MS/MS analysis 5 μl sample was injected. For the LC precolumn trap was applied: 5 min 20 μl 0.1% trifluoroacetic acid/water, then gradient elution for MS/MS analysis. Columns: Zorbax 300SB-C18, 5 μm, 5×0.3 mm; Zorbax 300SB-C18, 3.5 μm, 150×0.075 mm. […]

[9] = already at 20 and 50 μM concentrations
[10] = in the concentration range tested

SMILES	inhibition of RVH melanoma cells (cytotoxic effect) [2]	effect on MCF7 cells [3, 9]	inhibition of MCF7 cells (cytotoxic effect) [3]	inhibition of HepG2 cells (cytotoxic effect) [4]	also measured
CC(C)c1cccc(C(C)C)c1N1C(=O)c2c(F)c(F)c(F)c(NC3CCCC3)c2C1=O [Compound 9a, 2-(2,6-diisopropylphenyl)-4-(cyclopentylamino)-5,6,7-trifluoroisoindoline-1,3-dione]	–	–	–	–	survival of the animals [1]: significant increase of the survival
CC(C)c1cccc(C(C)C)c1N1C(=O)c2c(F)c(F)c(F)c(NCCN)c2C1=O [Compound 5a, 2-(2,6-diisopropylphenyl)-4-(2-amino-ethylamino)-5,6,7-trifluoroisoindole-1,3-dione]	strongest inhibition	strong effect	–	–	effect on HepG2 cells [4, 10]: weak effect
CCNc1c(F)c(F)c(F)c2c1C(=O)N(c1c(C(C)C)cccc1C(C)C)C2=O [Compound 3a, 2-(2,6-diisopropylphenyl)-4-(ethylamino)-5,6,7-trifluoroisoindole-1,3-dione]	–	–	–	–	effect on RVH melanoma cells [2]: weak effect; vitality of the cells (MTS test) ([5]; 3 hours after the stimulation with LPS): no cell death was detected; metabolic activity of the cells (MTS test) ([5]; 8 hours after the treatment): not found to be toxic; effect on MCF7 cells [3, 10]: weak effect; number of divided (living) bacteria versus untreated group [6]: significantly smaller; late TNFα secretion of macrophages [7]: inhibited late TNFα secretion of macrophages in a concentration dependent way; effect on HepG2 cells [4, 10]: weak effect
CC(C)c1cccc(C(C)C)c1N1C(=O)c2c(F)c(F)c(F)c(NCc3cccnc3)c2C1=O [Compound 4a]	strongest inhibition	–	strongest inhibition	strongest inhibition	–
CC(C)c1cccc(C(C)C)c1N1C(=O)c2c(F)c(F)c(NCCN)c(F)c2C1=O [Compound 5b, 2-(2,6-diisopropylphenyl)-5-(2-amino-ethylamino)-4,6,7-trifluoroisoindole-1,3-dione]	–	–	–	–	proteins binding to the compound [8]: interactions with Rab GTPase proteins were identified; effect on RVH melanoma cells [2]: weak effect
CC(C)c1cccc(C(C)C)c1N1C(=O)c2c(F)c(F)c(NCc3cccnc3)c(F)c2C1=O [Compound 4b]	strongest inhibition	strong effect	–	–	effect on HepG2 cells [4, 9]: strong effect
CC(C)c1cccc(C(C)C)c1N1C(=O)c2c(F)c(F)c(F)c(NCCCN3CCOCC3)c2C1=O [Compound 7a, 2-(2,6-diisopropylphenyl)-4-(3-morpholino-4-yl-propylamino)-5,6,7-trifluoroisoindole-1,3-dione]	–	–	strongest inhibition	strongest inhibition	–
CC(C)c1cccc(C(C)C)c1N1C(=O)c2c(F)c(F)c(F)c(NCC(F)(F)F)c2C1=O [Compound 6a, 2-(2,6-diisopropylphenyl)-4,5,6-trifluoro-7-(2,2,2-trifluoroethylamino)isoindole-1,3-dione]	strongest inhibition	–	strongest inhibition	strongest inhibition	–
CC(C)c1cccc(C(C)C)c1N1C(=O)c2c(F)c(F)c(NCCCN3CCOCC3)c(F)c2C1=O [Compound 7b, 2-(2,6-diisopropylphenyl)-5-(3-morpholino-4-yl-propylamino)-4,6,7-trifluoroisoindole-1,3-dione]	strongest inhibition	strong effect	–	strongest inhibition	effect on HepG2 cells [4, 9]: strong effect
